Measurements: patent publication US20120321694A1, “COMPOSITIONS AND USES” (priority 2010, published 2012)
Where no end group is shown, it is not given here. The star is where a group is joined. Pam3Cys = N-terminal lipid (lipidation), CCCCCCCCCCCCCCCC(=O)N[C@@H](CSCC(COC(=O)CCCCCCCCCCCCCCC)OC(=O)CCCCCCCCCCCCCCC)C(=O)*

How the values were obtained:
BV2 microglia cells = test: In vitro phagocytosis of Aβ1-42 in BV2 cells (Western blot); format: cell-based, mouse; conditions: 5 μg/mL cytochalasin D, 30 min before; FIG. 16
Procedure: For total Aβ detection, 10-30 μg of cell extracts were separated on a precast 10-20% SDS polyacrylamide Tris-Tricine gel (Bio-Rad, Canada). Separated proteins were then transferred onto polyvinylidene fluoride (PVDF) membranes (PerkinElmer, Canada). Membrane were incubated in DPBS (Gibco, USA) at 90° C. for 10 min. […] Films were digitalized using a HP Scanjet 4370 (HP) and signal intensity was measured using ImageJ (version 1.44p, NIH).
BV2 microglia cells were seeded at 900000 cells/60 mm cell culture Petri dish 24 hours prior the experiment, and cultured in complete media (Dulbecco's Modified Eagle Medium (DMEM, Gibco, USA) supplemented with 10% fetal bovine serum (FBS) (Gibco, USA), 1 mM sodium pyruvate (Gibco, USA) and 100 U/mL of penicillin and 100 μg/mL of streptomycin (Gibco, USA)). […] Protein concentration in supernatant or cell extracts was then measured using the Bradford method (Coomassie Plus, The better Bradford assay reagent, Thermoscientific, USA) accordingly to the manufacturer recommendation and equal amount of protein were then analyzed by Western blot. […]

Aβ42 = test: Anti-Aβ42 immunogenicity in amyloid deposition mouse model; format: in vivo, TASTPM mice; conditions: 12 injections, intramuscular route; FIG. 29
TASTPM mice [1] = test: T-water maze in TASTPM mice; format: in vivo; conditions: 12 weekly i.m. injections; vs PBS; FIG. 30
Procedure: To determine whether a TLR2 agonist will improve the cognitive impairment in TASTPM mice, the Pam3CysLip adjuvant fused to the Aβ1-6 peptide was injected 12 times at weekly basis using the intramuscular route and the memory was assessed using the T-water maze test. […] TASTPM mice have received one a week for a period of 12 weeks the following treatment: PBS or mice have received once a week for a period of 12 weeks the following treatment: PBS or of Pam3CysLip Aβ1-6 peptide.

TASTPM mice [2] = test: Survival of TASTPM mice; format: in vivo; conditions: weekly injections, followed for 112 days; PBS 13 out 25; FIG. 31
From the text: The usage of the TLR2 agonist, i.e. Pam3CysLip Aβ1-6 peptide, improves the survival rate of TASTPM mouse model. 23 out of 25 mice survived after weekly injections of Pam3CysLip Aβ1-6 peptide compared to PBS injected animals in which only 13 out 25 TASTPM mice survived (followed for 112 days).

Row | Compound | effect on 2E7-stimulated cellular uptake of Aβ1-42 (BV2 microglia cells) | anti Aβ42 specific immunogenicity (Aβ42) | T-water maze, right-left discrimination tests (working memory) (TASTPM mice [1]) | mice survived (TASTPM mice [2])
1 | C=C1[C@@H](C)[C@H]2[C@H](Cc3ccccc3)NC(=O)[C@]23[C@H](OC(C)=O)/C=C/[C@@](C)(O)C(=O)[C@@H](C)C/C=C/[C@H]3[C@@H]1O [cytochalasin D] | further inhibited | – | – | –
2 | Pam3Cys—SQ EPAAPAAEAT PAAEAPDAEFRH (Pam3Cys-SQEPAAPAAEATPAAEAPDAEFRH) [Pam3CysLip Aβ1-6 peptide] | – | High and specific anti Aβ42 specific immunogenicity | trend of improvement | 23 out of 25
